According to ChEMBL document CHEMBL1130971, “Endothelin antagonists: evaluation of 2,1,3-benzothiadiazole as a methylendioxyphenyl bioisoster” (Bioorg Med Chem Lett, 1998):

Each molecule was assayed against Endothelin-1 receptor (Rattus norvegicus) (assay: pA2 value towards endothelin receptor A was determined as functional ETA antagonism).

Kb [nM]	Compound
3.16	COc1ccc(C(=O)/C(Cc2cc(OC)c(OC)c(OC)c2)=C(\C(=O)O)c2ccc3nsnc3c2)cc1
25.1	COc1ccc(C(=O)/C(Cc2cc(OC)c(OC)c(OC)c2)=C(\C(=O)O)c2ccc3c(c2)OCO3)cc1 [PD-156707 SODIUM]

Each molecule was assayed against T1, Endothelin-1 receptor (Rattus norvegicus, UniProt P26684) (assay: Inhibition of [125I]ET1 binding to rat aorta membrane Endothelin A receptor).
T1 sequence (P26684 whole entry): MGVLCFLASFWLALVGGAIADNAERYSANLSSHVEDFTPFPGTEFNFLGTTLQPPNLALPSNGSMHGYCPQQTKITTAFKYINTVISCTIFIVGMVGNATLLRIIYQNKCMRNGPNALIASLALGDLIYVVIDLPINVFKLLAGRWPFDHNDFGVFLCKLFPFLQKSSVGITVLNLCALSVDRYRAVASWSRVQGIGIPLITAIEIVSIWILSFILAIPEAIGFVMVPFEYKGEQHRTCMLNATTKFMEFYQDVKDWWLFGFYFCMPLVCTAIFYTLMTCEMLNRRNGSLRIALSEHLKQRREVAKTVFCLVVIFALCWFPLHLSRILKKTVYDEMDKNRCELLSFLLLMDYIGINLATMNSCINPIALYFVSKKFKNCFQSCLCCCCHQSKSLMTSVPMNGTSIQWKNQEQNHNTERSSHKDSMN

IC50 [nM]	Compound
250	CCCOc1ccc2c(c1)c(-c1ccc3c(c1)OCO3)c(C(=O)O)n2Cc1ccc2c(c1)OCO2
150	COc1cc2c(-c3ccc4c(c3)OCO4)c(C(=O)O)n(Cc3ccc4c(c3)OCO4)c2cc1OC
370	CN(C)c1cccc2c(S(=O)(=O)Nc3ccc4c(c3)OCO4)cccc12
160	CCCOc1ccc2c(c1)c(-c1ccc(OC)cc1)c(C(=O)O)n2Cc1cc2nsnc2cc1C
390	COc1ccc(-c2c(C(=O)O)c(=O)n(Cc3ccc4nsnc4c3)c3c2oc2ccccc23)cc1
33	COc1cc2c(-c3ccc4c(c3)OCO4)c(C(=O)O)n(Cc3ccc4nsnc4c3)c2cc1OC
210	CCCOc1ccc2c(c1)c(-c1ccc(OC)cc1)c(C(=O)O)n2Cc1ccc2nsnc2c1
97	CCCOc1ccc2c(c1)c(-c1ccc3c(c1)OCO3)c(C(=O)O)n2Cc1ccc2nsnc2c1
2500	CCCOc1ccc2c(c1)c(-c1ccc3c(c1)OCO3)c(C(=O)O)n2Cc1ccc2nonc2c1
0.3	COc1ccc(C2(O)OC(=O)C(c3ccc4nsnc4c3)=C2Cc2cc(OC)c(OC)c(OC)c2)cc1 (stereo not drawn)
1300	COc1ccc(-c2c(C(=O)O)c(=O)n(Cc3ccc4c(c3)OCO4)c3c2oc2ccccc23)cc1
